ChEMBL document CHEMBL3860050, “Triterpenoids from Momordica balsamina: Reversal of ABCB1-mediated multidrug resistance” (Bioorg Med Chem, 2016)

Tests used:
[1] = target: T1, ATP-dependent translocase ABCB1 (Homo sapiens, UniProt P08183); assay: Inhibition of MDR1-mediated efflux-pump activity in mouse L5178Y cells expressing human MDR1 assessed as side scattered light at 2 uM preincubated for 10 mins followed by rhodamine-123 addition measured after 20 mins by flow cytometry (reference value: 194.6 to 286.4); format: cell-based
T1 sequence (P08183 whole entry): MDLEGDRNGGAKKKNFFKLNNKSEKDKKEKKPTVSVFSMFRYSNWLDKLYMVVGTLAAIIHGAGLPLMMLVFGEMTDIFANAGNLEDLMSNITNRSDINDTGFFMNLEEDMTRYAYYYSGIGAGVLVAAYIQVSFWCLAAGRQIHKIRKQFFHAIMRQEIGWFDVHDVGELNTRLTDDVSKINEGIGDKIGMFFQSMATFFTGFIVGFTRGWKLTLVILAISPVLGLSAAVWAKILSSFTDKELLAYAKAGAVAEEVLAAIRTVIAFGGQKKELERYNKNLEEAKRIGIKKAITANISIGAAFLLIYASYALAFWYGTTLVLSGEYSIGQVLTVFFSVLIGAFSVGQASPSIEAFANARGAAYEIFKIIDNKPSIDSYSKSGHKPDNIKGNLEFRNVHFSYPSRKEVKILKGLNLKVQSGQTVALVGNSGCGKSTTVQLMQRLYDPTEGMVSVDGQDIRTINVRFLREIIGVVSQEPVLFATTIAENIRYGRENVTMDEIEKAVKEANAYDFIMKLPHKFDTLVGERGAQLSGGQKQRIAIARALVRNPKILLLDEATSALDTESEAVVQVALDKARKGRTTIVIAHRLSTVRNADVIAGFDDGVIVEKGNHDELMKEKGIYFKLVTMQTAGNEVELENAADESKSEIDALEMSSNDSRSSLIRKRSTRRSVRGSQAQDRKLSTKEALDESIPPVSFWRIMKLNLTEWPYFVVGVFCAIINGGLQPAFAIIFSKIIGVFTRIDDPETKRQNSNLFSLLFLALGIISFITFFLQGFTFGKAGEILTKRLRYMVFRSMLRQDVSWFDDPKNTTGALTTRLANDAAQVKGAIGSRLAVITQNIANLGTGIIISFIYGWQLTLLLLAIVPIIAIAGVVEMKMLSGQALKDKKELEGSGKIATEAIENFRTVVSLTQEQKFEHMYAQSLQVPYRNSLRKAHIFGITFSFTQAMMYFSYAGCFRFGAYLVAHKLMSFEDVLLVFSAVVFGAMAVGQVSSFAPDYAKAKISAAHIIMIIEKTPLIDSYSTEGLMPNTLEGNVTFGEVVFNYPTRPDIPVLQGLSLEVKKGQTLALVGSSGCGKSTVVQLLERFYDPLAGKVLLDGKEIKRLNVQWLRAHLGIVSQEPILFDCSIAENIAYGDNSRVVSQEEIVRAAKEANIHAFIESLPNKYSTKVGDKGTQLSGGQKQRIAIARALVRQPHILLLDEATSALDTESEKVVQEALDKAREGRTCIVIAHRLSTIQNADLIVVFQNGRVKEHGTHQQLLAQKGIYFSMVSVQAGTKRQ

[2] = target: T1, ATP-dependent translocase ABCB1; assay: Inhibition of MDR1-mediated efflux-pump activity in mouse L5178Y cells expressing human MDR1 assessed as fluorescence activity ratio at 2 uM preincubated for 10 mins followed by rhodamine-123 addition measured after 20 mins by flow cytometry; format: cell-based
[3] = Antiproliferative activity against mouse L5178Y cells expressing human MDR1 measured after 72 hrs by MTT assay; format: functional, cell-based
[4] = target: T1, ATP-dependent translocase ABCB1; assay: Inhibition of MDR1-mediated efflux-pump activity in mouse L5178Y cells expressing human MDR1 assessed as forward scattered light at 2 uM preincubated for 10 mins followed by rhodamine-123 addition measured after 20 mins by flow cytometry (reference value: 455.7 to 509.9); format: cell-based
[5] = target: T1, ATP-dependent translocase ABCB1; assay: Inhibition of MDR1-mediated efflux-pump activity in mouse L5178Y cells expressing human MDR1 assessed as fluorescence activity ratio at 20 uM preincubated for 10 mins followed by rhodamine-123 addition measured after 20 mins by flow cytometry; format: cell-based
[6] = target: T1, ATP-dependent translocase ABCB1; assay: Inhibition of MDR1-mediated efflux-pump activity in mouse L5178Y cells expressing human MDR1 assessed as mean fluorescence intensity at 20 uM preincubated for 10 mins followed by rhodamine-123 addition measured after 20 mins by flow cytometry (reference value: 7.1 to 18.6); format: cell-based
[7] = target: T1, ATP-dependent translocase ABCB1; assay: Inhibition of MDR1-mediated efflux-pump activity in mouse L5178Y cells expressing human MDR1 assessed as forward scattered light at 20 uM preincubated for 10 mins followed by rhodamine-123 addition measured after 20 mins by flow cytometry (reference value: 455.7 to 509.9); format: cell-based
[8] = target: T1, ATP-dependent translocase ABCB1; assay: Inhibition of MDR1-mediated efflux-pump activity in mouse L5178Y cells expressing human MDR1 assessed as mean fluorescence intensity at 2 uM preincubated for 10 mins followed by rhodamine-123 addition measured after 20 mins by flow cytometry (reference value: 7.1 to 18.6); format: cell-based
[9] = Antiproliferative activity against mouse L5178Y cells measured after 72 hrs by MTT assay; format: functional, cell-based
[10] = target: T1, ATP-dependent translocase ABCB1; assay: Inhibition of MDR1-mediated efflux-pump activity in mouse L5178Y cells expressing human MDR1 assessed as side scattered light at 20 uM preincubated for 10 mins followed by rhodamine-123 addition measured after 20 mins by flow cytometry (reference value: 194.6 to 286.4); format: cell-based

Compound | Activity [1] | Ratio [2] | IC50 [3] | Activity [4] | Ratio [5] | Flu intensity [6] | Activity [7] | Flu intensity [8] | IC50 [9] | Activity [10]
CO[C@H]1C=C2[C@@H](CC[C@H](OC(=O)c3ccccc3)C2(C)C)[C@]2(C)CC[C@]3(C)[C@@H]([C@H](C)C/C=C/C(C)(C)O)CC[C@@]3(C)[C@H]12 | 233.1 | 1 | 130 µM | 454.2 | 7.8 | 140 | 444.8 | 17.9 | 108 µM | 235.1
CC(=O)C[C@@H](C)[C@H]1CC[C@@]2(C)[C@@H]3C(=O)C=C4[C@@H](CC[C@H](O)[C@]4(C)CO)[C@]3(C)CC[C@]12C [BALSAMINOL D] | 254.3 | 1 | 67.1 µM | 439.9 | 1.9 | 25.9 | 434.2 | 10.3 | 27.8 µM | 256.5
CO[C@H]1C=C2[C@@H](CC[C@H](OC(=O)CCC(=O)O)C2(C)C)[C@]2(C)CC[C@]3(C)[C@@H]([C@H](C)C[C@H](C=C(C)C)OC(=O)CCC(=O)O)CC[C@@]3(C)[C@H]12 | 184.6 | 1.3 | 46.9 µM | 545.8 | 5.9 | 39.5 | 546.7 | 8.2 | 16.9 µM | 187
CO[C@H]1C=C2[C@@H](CC[C@H](O)C2(C)C)[C@]2(C)CC[C@]3(C)[C@@H]([C@H](C)C[C@H](C=C(C)C)OC(=O)c4ccc([N+](=O)[O-])cc4)CC[C@@]3(C)[C@H]12 [KARAVOATE I] | 184.1 | 2.1 | 60.4 µM | 537.3 | 3.9 | 25.9 | 534.1 | 14.3 | 29 µM | 182.9
CO[C@H]1C=C2[C@@H](CC[C@H](OC(=O)c3ccc(Cl)cc3)C2(C)C)[C@]2(C)CC[C@]3(C)[C@@H]([C@H](C)C[C@H](C=C(C)C)OC(=O)c4ccc(Cl)cc4)CC[C@@]3(C)[C@H]12 [KARAVOATE L] | 206.4 | 1 | > 133 µM | 504.6 | 1.2 | 9 | 512.2 | 8.1 | > 133 µM | 202.4
CO[C@H]1C=C2[C@@H](CC[C@H](OC(=O)c3ccccc3)C2(C)C)[C@]2(C)CC[C@]3(C)[C@@H]([C@H](C)C[C@H](C=C(C)C)OC(=O)c4ccccc4)CC[C@@]3(C)[C@H]12 [KARAVOATE H] | 200.4 | 1.2 | 96.4 µM | 504.9 | 1.3 | 10.4 | 519.8 | 9 | > 133 µM | 215.4
CC(C)=C[C@H](O)C[C@@H](C)[C@H]1CC[C@@]2(C)[C@@H]3[C@@H](O[C@H]4O[C@@H](CO)[C@H](O)[C@H](O)[C@@H]4O)C=C4[C@@H](CC[C@H](O)C4(C)C)[C@]3(C)CC[C@]12C | 267.4 | 0.9 | 42.6 µM | 443.8 | 37.2 | 487.1 | 457.9 | 11.5 | 18.7 µM | 277.2
C[C@H](C/C=C/C(C)(C)O)[C@H]1CC[C@@]2(C)[C@@H]3[C@@H](O)C=C4[C@@H](CC[C@H](O)C4(C)C)[C@]3(C)C[C@@H](O)[C@]12C [CUCURBALSAMINOL A] | 254.7 | 0.7 | 63.4 µM | 427.2 | 2.9 | 38.2 | 429 | 8.8 | 48.2 µM | 252
CO[C@H]1C=C2[C@@H](CC[C@H](O)C2(C)C)[C@]2(C)CC[C@]3(C)[C@@H]([C@H](C)C[C@H](C=C(C)C)OC(=O)CCC(=O)O)CC[C@@]3(C)[C@H]12 | 184.1 | 1.1 | 40.6 µM | 545.2 | 4.2 | 28 | 540.1 | 7.5 | 20.8 µM | 185.6
CO[C@H]1C=C2[C@@H](CC[C@H](OC(=O)/C=C/c3ccccc3)C2(C)C)[C@]2(C)CC[C@]3(C)[C@@H]([C@H](C)C[C@H](C=C(C)C)OC(=O)/C=C/c4ccccc4)CC[C@@]3(C)[C@H]12 [KARAVOATE P] | 191.2 | 1 | > 133 µM | 528 | 2.7 | 18.1 | 503 | 6.9 | > 133 µM | 177
C=C(C)[C@@H](O)[C@H](O)C[C@@H](C)[C@H]1CC[C@@]2(C)[C@@H]3[C@@H](O)C=C4[C@@H](CC[C@H](O)[C@]4(C)CO)[C@]3(C)CC[C@]12C [BALSAMINAPENTAOL A] | 254.7 | 0.7 | 29.3 µM | 427.2 | 2.9 | 38.2 | 429 | 8.8 | 13.7 µM | 252
CC(C)=C[C@H](O)C[C@@H](C)[C@H]1CC[C@@]2(C)[C@@H]3[C@@H](O)C=C4[C@@H](CC[C@H](O)C4(C)C)[C@]3(C)CC[C@]12C [BALSAMINOL F] | 202.1 | 2.6 | 20.8 µM | 490.7 | – | – | – | 20.1 | 8.3 µM | –
CC(=O)O[C@H]1C=C2[C@@H](CC[C@H](OC(C)=O)C2(C)C)[C@]2(C)CC[C@]3(C)[C@@H]([C@H](C)C[C@H](C=C(C)C)OC(C)=O)CC[C@@]3(C)[C@H]12 [TRIACETYLBALSAMINOL F] | 182.1 | 3 | > 133 µM | 541.9 | 15 | 100.6 | 533.5 | 20 | > 133 µM | 179.9
CO[C@H]1C=C2[C@@H](CC[C@H](OC(=O)c3ccc([N+](=O)[O-])cc3)C2(C)C)[C@]2(C)CC[C@]3(C)[C@@H]([C@H](C)C[C@H](C=C(C)C)OC(=O)c4ccc([N+](=O)[O-])cc4)CC[C@@]3(C)[C@H]12 [KARAVOATE J] | 186.3 | 1.4 | 87.9 µM | 543.4 | 2.1 | 14.3 | 537.3 | 9.5 | 59.4 µM | 184.1
COc1ccc(C(=O)O[C@H]2CC[C@@H]3C(=C[C@H](OC)[C@@H]4[C@@]3(C)CC[C@]3(C)[C@@H]([C@H](C)C[C@H](C=C(C)C)OC(=O)c5ccc(OC)cc5)CC[C@@]43C)C2(C)C)cc1 [KARAVOATE N] | 184.1 | 0.9 | > 133 µM | 528.1 | 1.4 | 9.7 | 548.9 | 6.3 | 74.6 µM | 186.7
CC(C)=C[C@@H](C[C@@H](C)[C@H]1CC[C@@]2(C)[C@@H]3[C@@H](OC(=O)c4ccccc4)C=C4[C@@H](CC[C@H](OC(=O)c5ccccc5)C4(C)C)[C@]3(C)CC[C@]12C)OC(=O)c1ccccc1 [TRIBENZOYLBALSAMINOL F] | 188.7 | 1.3 | 87.9 µM | 524.2 | 1.1 | 7.1 | 538.1 | 7.6 | 74.7 µM | 181.7
CC(C)=C[C@H](O)C[C@@H](C)[C@H]1CC[C@@]2(C)[C@@H]3C(O[C@H]4O[C@@H](CO)[C@H](O)[C@@H](O)[C@@H]4O)C=C4[C@@H](CC[C@H](O)C4(C)C)[C@]3(C)CC[C@]12C (stereo partly specified) | 235.6 | 1 | 54.2 µM | 557.9 | 2.3 | 23.6 | 573 | 10.7 | 19.2 µM | 236.9
